Source: patent US10463695B2, “Methods and compositions for use in the prevention, treatment and/or alleviation of cancer” (priority 2016, dated 2019)
Like-named read-outs stand apart in the source and are kept apart here.

Assays:
[1] = Whole body autoradiography of pregnant mice, cadmium isotope 109Cd; format: in vivo; conditions: for Passage of Cd through the placenta: pregnant mice, intravenous 109CdCl2, about 18th day after conception, autoradiography
Protocol: (§1) The present inventor commissioned studies where the function of the placenta was investigated using radioactive isotopes of cadmium and zinc. Pregnant female mice were injected intravenously with 8 μc of ^109CdCl2 obtained from Philips Ltd., Eindhoven, Holland. The injection of isotope was made into the tail vein according to standard practice. The mice were injected so that the day of sacrifice coincided approximately with the 18th day after conception, determined by the presence of a vaginal plug after mating. The mice were sacrificed under ether anesthesia by immersion in a mixture of acetone and liquid carbon dioxide (about −80 C). The mice were then sagittally sectioned in a cold room at −10 C according to standard practice, and the sections obtained were affixed to cellulose tape.
(§2) Each section was then apposed to X-ray film together with an isotope reference standard. The sections and films were kept at −10 C until exposure was complete. The determination of the order of cadmium and zinc concentration in different organs was made through densitometric comparison of the autoradiographic exposure caused by the organs, compared to the reference standard.

[2] = cited from earlier work
[3] = Whole body autoradiography of pregnant mice, zinc isotope 65Zn; format: in vivo
Protocol: as §1, §2

| SMILES | Passage of Cd through the placenta [1] | Passage of Cd through the placenta ([1]; listed as 109Cd) | Tissue enrichment of 109Cd ([1]; pregnant mouse, autoradiograph, FIG. 3) | Concentration at which acute toxicity is observed ([2]; cadmium in blood) | Threshold at which medical treatment needs to be initiated ([2]; cadmium, information supplied by VITA Laboratorio) [nmol/L] | Passage of Zn through the placenta [3] | Passage of Zn through the placenta ([3]; listed as 65Zn) |
| --- | --- | --- | --- | --- | --- | --- | --- |
| [Cd] [Cd, cadmium] | did not pass the placental barrier | no cadmium has passed through the placenta into the fetus | enriched in the liver and kidney, and to some extent in placental tissue | around 50 μng/ml | 50 | – | – |
| [Zn] [Zn, zinc] | – | – | – | – | – | passed through the placenta and was enriched in the fetal tissue | capable of passing through the placenta |
